Test results: patent US20260144805A1, “CANNABIDIOL COMPOSITIONS FOR USE IN THE TREATMENT OF NEURODEGENERATIVE AND NEUROLOGICAL DISORDERS” (JAZZ PHARMACEUTICALS RESEARCH UK LIMITED, priority 2022, published 2026)

What was measured:
rTg4510 mice = assay: Open Field (OF) test, locomotor activity in rTg4510 mouse model of Alzheimer's Disease (Example 2; DS = DS-C); type: in vivo; conditions: for Locomotor activity totals, Mean / Locomotor activity totals, % vs Wild-type / Locomotor activity totals, % vs rTg4510: Doxycycline 200 ppm diet
Protocol: The aim of this study was to evaluate the efficacy of the present drug substance to modulate the agitation-like behaviours in the rTg4510 regulatable mouse model of Alzheimer's Disease (AD). Animals were tested in a behavioural assay, the Open Field (OF) test to measure locomotor activity (LMA). Activity was first assessed at a 21-week-old baseline to determine whether a hyperactive phenotype (to be used as a proxy for agitation) had developed and was further assessed at 2 subsequent ages in acute and chronic efficacy phases.
Ninety male rTg4510 (CC) mice and 15 wild-type (WW) (Tg(Camk2a-tTA)1Mmay Fgf14^Tg(tetO-MAPT*P301L)4510Kha/J, Jax strain #024854, licensed from the Mayo Clinic, USA) were split into 2 cohorts, 4 weeks apart in age; cohort 1 contained 53 mice (8 WW and 45 CC) and cohort 2 contained 52 mice (7 WW and 45 CC). Relative humidity was 55±15% throughout. Mice were housed in individually ventilated cages on a 12 h/12 h light/dark cycle (lights on at 07.00 h; illumination by red light during the dark phase), at an ambient temperature of 24±4° C. with free access to standard rodent maintenance diet and filtered water. Animals were allowed to acclimatise to the above conditions for 7-10 days prior to the study start. All housing groupings were preserved until the mice were approximately 5 months old, at which point they were singly housed.
Doxycycline administration: a subset of animals in cohort 2 (n=15) was administered 2× daily oral bolus doses of doxycycline hyclate (10 mg/kg p.o. in 5% glucose, Sigma Aldrich) at 13 weeks of age, followed by continuous exposure to normal lab chow containing 200 ppm doxycycline (Envigo Teklad 2018 TD.00502 no colourants, irradiated and vacuum-packed). All other animals received Envigo Teklad 2018 diet. All diet was provided ad libitum.
Following this regime, animals were evaluated in Open Field (OF) test, before being deeply anaesthetised at the end of the behavioural testing prior to biofluid sampling and tissue harvesting.
Specifically, the material was solubilised by the addition of 50 μL of 10% glacial acetic acid and making up to volume with 0.9% saline (Aquapharm, Animal Care, York, UK, Lot 21030311).
Drug Substance (DS): (i.e., DS-C, See Table B in Example 1) Dosing volume was 10 mL/kg and DS was formulated at the 150 mg/kg dose in a vehicle of ethanol: Kolliphor HS15: 0.9% saline (1:12:87, w/w/v) which were stored at room temperature and added at approximately 60° C. to form solutions which were subsequently stable at room temperature. All dosing formulations were protected from light whenever possible. Dosing solutions were made fresh on the day of dosing, with lower dose formulations being prepared by dilution from the 150 mg/kg dosing solution at room temperature.
Locomotor activity was assessed by OF test in the light phase of the light-dark cycle at weeks 21, 26 and 31. An automated beam break apparatus (40 cages) was used for the assessment of locomotor activity in rats and mice. Each cage had 4 beams; 1 ‘y’ and 3 ‘x’ which triggered a signal through capacitors when the beam was broken. Signals were collected by data loggers and processed accordingly. All animals were placed in the apparatus and spontaneous activity was assessed for a four-hour period between 0900 and 1300. Animals were then removed from the apparatus and returned to their home cages. LMA assessment was split over 2 consecutive days at each time point.
For locomotor data, a log (x+1) transformation was used. For weeks 21 & 26, means and SEMs were calculated from the transformed data. Analysis was by Friedman's two-way nonparametric ANOVA with treatment and test day as factors to compare each group to the WW animals, and (where appropriate) Doxycycline with the untreated rTg4510 group. For week 30, data excluding the WW and Doxycycline groups for each time period were analysed by robust regression model using M estimation, Huber weighting, using the default parameter c=1.345. […]

[1] = Weekly body weight of rTg4510 mice (Example 2); type: in vivo, mouse; conditions: rTg4510 mice fed doxycycline; 15 weeks of age
Protocol: Weekly bodyweight: all animals were weighed weekly until the end of the study.
Weekly body weight data were analysed by mixed linear model with the cohort by week and group by week interactions as fixed effects, animal as the random subject, using an AR (1)+RE correlation structure. Comparisons to the WW and rTg4510 (vehicle) groups for the same week were by the multiple t test.

[2] = Brain weight of rTg4510 mice (Example 2); type: in vivo, mouse; conditions: rTg4510 CC mice administered doxycycline; end of study
Protocol: Brain Tissue Collection: Mice were decapitated and the brains rapidly extracted. Brains were briefly washed in saline and blot dried then hemisected, weighed separately and frozen on dry ice before storage at approximately −80° C.
Brain weights were analysed by 2-way analysis of variance with treatment and cohort as factors.

[3] = Week 31, 0-240 minute period, doxycycline-treated group

Compound: C[C@H]1c2cccc(O)c2C(=O)C2=C(O)[C@]3(O)C(=O)C(C(N)=O)=C(O)[C@@H](N(C)C)[C@@H]3[C@@H](O)[C@@H]21 [Doxycycline, doxycycline hyclate]
- Locomotor activity totals, Mean (rTg4510 mice; Week 21, 0-30 minutes): 855.0
- Locomotor activity totals, Mean (rTg4510 mice; Week 21, 0-60 minutes): 1624.9
- Locomotor activity totals, Mean (rTg4510 mice; Week 21, 0-240 minutes): 3476.4
- Locomotor activity totals, Mean (rTg4510 mice; Week 21, 30-60 minutes): 749.9
- Locomotor activity totals, Mean (rTg4510 mice; Week 21, 60-90 minutes): 542.2
- Locomotor activity totals, Mean (rTg4510 mice; Week 21, 60-120 minutes): 880.1
- Locomotor activity totals, Mean (rTg4510 mice; Week 21, 90-120 minutes): 283.2
- Locomotor activity totals, Mean (rTg4510 mice; Week 21, 120-150 minutes): 227.4
- Locomotor activity totals, Mean (rTg4510 mice; Week 21, 120-180 minutes): 521.1
- Locomotor activity totals, Mean (rTg4510 mice; Week 21, 150-180 minutes): 181.8
- Locomotor activity totals, Mean (rTg4510 mice; Week 21, 180-210 minutes): 71.1
- Locomotor activity totals, Mean (rTg4510 mice; Week 21, 180-240 minutes): 212.8
- Locomotor activity totals, Mean (rTg4510 mice; Week 21, 210-240 minutes): 52.4
- Locomotor activity totals, Mean (rTg4510 mice; Week 26, 0-30 minutes): 903.7
- Locomotor activity totals, Mean (rTg4510 mice; Week 26, 0-60 minutes): 1606.6
- Locomotor activity totals, Mean (rTg4510 mice; Week 26, 0-240 minutes): 3435.5
- Locomotor activity totals, Mean (rTg4510 mice; Week 26, 30-60 minutes): 664.6
- Locomotor activity totals, Mean (rTg4510 mice; Week 26, 60-90 minutes): 489.8
- Locomotor activity totals, Mean (rTg4510 mice; Week 26, 60-120 minutes): 770.3
- Locomotor activity totals, Mean (rTg4510 mice; Week 26, 90-120 minutes): 186.7
- Locomotor activity totals, Mean (rTg4510 mice; Week 26, 120-150 minutes): 157.0
- Locomotor activity totals, Mean (rTg4510 mice; Week 26, 120-180 minutes): 459.9
- Locomotor activity totals, Mean (rTg4510 mice; Week 26, 150-180 minutes): 142.2
- Locomotor activity totals, Mean (rTg4510 mice; Week 26, 180-210 minutes): 185.3
- Locomotor activity totals, Mean (rTg4510 mice; Week 26, 180-240 minutes): 362.6
- Locomotor activity totals, Mean (rTg4510 mice; Week 26, 210-240 minutes): 41.3
- Locomotor activity totals, % vs Wild-type (rTg4510 mice; Week 31, 0-30 minutes): 143.2%
- Locomotor activity totals, % vs rTg4510 (rTg4510 mice; Week 31, 0-30 minutes): 58.7%
- Locomotor activity totals, Mean (rTg4510 mice; Week 31, 0-30 minutes): 744.04
- Locomotor activity totals, % vs Wild-type (rTg4510 mice; Week 31, 0-60 minutes): 144.7%
- Locomotor activity totals, % vs rTg4510 (rTg4510 mice; Week 31, 0-60 minutes): 47.6%
- Locomotor activity totals, Mean (rTg4510 mice; Week 31, 0-60 minutes): 1216.28
- activity as % of the activity seen in the WW animals (rTg4510 mice; [3]): 100.6%
- activity as % of the activity seen in the rTg4510(vehicle) animals (rTg4510 mice; [3]): 26.2%
- Locomotor activity totals, % vs Wild-type (rTg4510 mice; Week 31, 30-60 minutes): 141.7%
- Locomotor activity totals, % vs rTg4510 (rTg4510 mice; Week 31, 30-60 minutes): 35.3%
- Locomotor activity totals, Mean (rTg4510 mice; Week 31, 30-60 minutes): 445.74
- Locomotor activity totals, % vs Wild-type (rTg4510 mice; Week 31, 60-90 minutes): 153.3%
- Locomotor activity totals, % vs rTg4510 (rTg4510 mice; Week 31, 60-90 minutes): 37.0%
- Locomotor activity totals, Mean (rTg4510 mice; Week 31, 60-90 minutes): 231.53
- Locomotor activity totals, % vs Wild-type (rTg4510 mice; Week 31, 60-120 minutes): 176.8%
- Locomotor activity totals, % vs rTg4510 (rTg4510 mice; Week 31, 60-120 minutes): 49.4%
- Locomotor activity totals, Mean (rTg4510 mice; Week 31, 60-120 minutes): 477.89
- Locomotor activity totals, % vs Wild-type (rTg4510 mice; Week 31, 90-120 minutes): 324.4%
- Locomotor activity totals, % vs rTg4510 (rTg4510 mice; Week 31, 90-120 minutes): 110.8%
- Locomotor activity totals, Mean (rTg4510 mice; Week 31, 90-120 minutes): 165.38
- Locomotor activity totals, % vs Wild-type (rTg4510 mice; Week 31, 120-150 minutes): 134.8%
- Locomotor activity totals, % vs rTg4510 (rTg4510 mice; Week 31, 120-150 minutes): 63.1%
- Locomotor activity totals, Mean (rTg4510 mice; Week 31, 120-150 minutes): 105.17
- Locomotor activity totals, % vs Wild-type (rTg4510 mice; Week 31, 150-180 minutes): 135.0%
- Locomotor activity totals, % vs rTg4510 (rTg4510 mice; Week 31, 150-180 minutes): 33.9%
- Locomotor activity totals, Mean (rTg4510 mice; Week 31, 150-180 minutes): 28.13
- Locomotor activity totals, % vs Wild-type (rTg4510 mice; Week 31, 180-210 minutes): 8.9%
- Locomotor activity totals, % vs rTg4510 (rTg4510 mice; Week 31, 180-210 minutes): 5.6%
- Locomotor activity totals, Mean (rTg4510 mice; Week 31, 180-210 minutes): 1.72
- Locomotor activity totals, % vs Wild-type (rTg4510 mice; Week 31, 210-240 minutes): 90.8%
- Locomotor activity totals, % vs rTg4510 (rTg4510 mice; Week 31, 210-240 minutes): 117.5%
- Locomotor activity totals, Mean (rTg4510 mice; Week 31, 210-240 minutes): 16.18
- body weight [1]: 29.14 ± 0.50 g
- mean brain weight [2]: 408.8 ± 6.1 mg
